The results in this text go back to US20210144999A1, “COMPOSITIONS COMPRISING HYDROXYCINNAMIC ACID AND RELATED CONJUGATES, ANALOGUES AND DERIVATIVES, AND METHODS OF USE THEREOF” (YEDA RESEARCH AND DEVELOPMENT CO. LTD., priority 2017, published 2021).

“Also recorded” adds a separate entry of the source.

For experiment [1], the system named is pks operon (PpksC promoter). The experiment can be described thus: pks expression, PpksC-lux luminescence reporter. Format: cell-based, B. subtilis. As to conditions: library of 400 plant metabolites, growth-normalized RLU. How it is done: FIGS. 23A-23B: An ester of caffeic acid induces antibiotic production. (FIG. 23A) Scheme of a screen of plant metabolites for pks induction. (FIG. 23B) Growth-normalized RLU of PpksC-lux strain treated with a small molecule library representative as in A, compared with the treatment in root exudate.
(§1) pks expression analysis. pks expression in the presence of plant metabolites was analyzed as following: the luminescence intensity of cells harboring a PpksC-lux transcriptional promoter fusion was analyzed. Cells were grown to a mid-logarithmic phase, diluted 1:100 in 150 μl liquid MSgg medium, either with or without root exudate. Cells were grown in a 96-well microplate (Thermo Scientific, Roskilde, Denmark) with agitation at 30° C. for 16 h in a microplate reader (Synergy 2, BioTek, Winooski, Vt., USA) measuring luminescence intensity and the optical density at 600 nm (OD600) every 15 min.
A library of 400 plant metabolites was screened for pks induction using B. subtilis cells carrying the PpksC-lux construct (FIG. 23A).

The subject of experiment [2] is pseudomonas syringae pv. Tomato. The experiment can be described thus: Tomato plant survival after pseudomonas syringae pv. Tomato infection (Example 9). As to conditions: 5 μM caffeic acid or 5 μM putrescine or 2.5 μM each; putrescine read 28 days after infection. The format is in vivo, tomato plants. As for the experimental part: Bacillus strain B. subtilis 3610 (B.S) are maintained on LB plates. 1000 cells of B.S. with or without the addition of 5 μM of caffeic acid or 5 μM of putrescine, or 2.5 μM each of caffeic acid and putrescine are added to tomato plants grown on agrophonic beads. Plants are incubated at 28±2° C. for 15 days.

Experiment [3] concerns pks operon (PKS promoter). The experiment can be described thus: pks expression, amyE::Ppks-gfp fluorescence reporter. The format is cell-based, B. subtilis. How it is done:
FIGS. 3A:-3H Specialized host-derived metabolites increase PKS activity while B. subtilis biofilms increase plant Induced Systemic Resistance (ISR). (FIG. 3A) Quantification of pks expression (amyE::Ppks-gfp) in B. subtilis over time in response to different hydrophobicity fractions of plant root exudate. Expression was measured using fluorescent intensity of GFP fused to the PKS promoter. Color-coded curves indicate ascending methanol concentrations used for consecutive washings of root exudate from Silica-based bonded phase with strong hydrophobicity; darker curve indicates the first flow-through of the loaded root exudate from the silica cartridge. Orange curve indicate the pks expression kinetics without treatment. (FIG. 3B) Quantification of pks expression (amyE::Ppks-gfp) in B. subtilis over time in response to plant root metabolites. Expression was measured by fluorescent intensity of GFP fused to the PKS promotor. Color-coded curves indicate 5, 50,100 and 150 μM of the four metabolites: Methyl β-D-Glucopyranosid (upper left), Chromone (upper right), Chlorogenic acid (lower left) and Caffeic acid (lower right). Orange curve indicate the pks expression kinetics without treatment. (FIG. 3C) Fluorescence imaging of pks expression (amyE::Ppks-gfp) in a single cell resolution 5 h after B. subtilis was grown in MSgg (control) liquid culture supplemented with 150 μM of Chlorogenic acid and Caffeic acid. Images presented as over-layered channels of TL-phase and EGFP. Scale bar—[…]. […] Pathogenicity was measured in E. sativa seedlings whose roots were inoculated with B. subtilis, S. plymuthica and their combination in ratios of 1:1, 100:1 and 1:100. […]
Fluorescence microscopy. […] Cells were s visualized by fluorescence microscopy; Phase contrast and signal from Ppks-gfp (green) are shown. Fluorescent cell count and intensity levels were recorded for 10 fields in each treatment, at least 1000 cells were quantified for each treatment.

In experiment [4] the test system is B. subtilis 3610 biofilms. The experiment can be described thus: Biofilm maintenance (% coverage) on tomato roots in planta. Format: in vivo. As to conditions: 1000 B. subtilis cells with or without materials, tomato plants on agrophonic beads. How it is done:
(FIGS. 17A-17C) B. subtilis 3610 constantly expressing the fluorescent protein mKate2 was maintained on LB plates. 1000 cells either applied or non-applied with the materials indicated were added to tomato plants grown on agrophonic beads. % coverage was calculated based on quantifying 20 fields from the fluorescent microscope using Image J. Three replications were maintained for each assay. SD represents the average of three independent experiments.

Experiment [5] concerns B. subtilis biofilms. The experiment can be described thus: B. subtilis biofilm stability / maintenance in vitro. The format is cell-based. As to conditions: for effect on beneficial biofilms (stability / maintenance), single agent: in vitro, biofilms at day 1 and day 5. As for the experimental part: Shown are biofilms of treated and untreated B. subtilis biofilms.
Strains and Media All experiments were performed with B. subtilis NCBI3610 and its derivatives. Assays were carried out with the biofilm-inducing medium, MSgg: 5 mM potassium phosphate, 100 mM MOPS (pH 7), 2 mM MgCl2, 50 μM MnCl2, 1 μM ZnCl2, 2 μM thiamine, 0.5% glycerol, 0.5% glutamate, 50 μg/ml tryptophan, 50 μg/mlphenylalanine 50 μg/ml threonine, 700 μM CaCl2, and 50 μM (for growth assays) or 125 μM (for biofilm assays) FeCl3^1. A solid MSgg medium was obtained by adding Bacto agar (Difco) to a final concentration of 1.5%. When necessary, selective medium was prepared with LB-agar or LB broth, supplemented with: 100 μg/ml ampicillin (amp) (AG Scientific), or 10 μg/ml kanamycin (kan) (AG Scientific), or 10 μg/ml chloramphenicol (cam) (Amresco), or 10 μg/ml tetracycline (tet) (Amresco), or 100 μg/ml spectinomycin (spec) (Tivan Biotech), or 1 μg/mlerythromycin (erm) (Amresco)+25 μg/ml lincomycin (linc) (Sigma Aldrich).

Experiment [6] deals with B. subtilis. The experiment can be described thus: Planktonic growth (OD600) in liquid MSgg. As to conditions: caffeic acid at indicated concentrations, 30° C. Format: cell-based. How it is done: Planktonic growth of wild type grown at 30° C. with shaking in liquid MSgg medium without (untreated) or caffeic acid at indicated concentrations was monitored by measuring OD600in a microplate reader. Results are averages of four wells within one experiment and their standard deviations. A representative of three independent experiments is shown.
as §1

Take `O=c1ccc2cc(O)c(O)cc2o1` [aesculetin]: in experiment [1], the “pks activation in screen of plant metabolites” value was “activatespks operon; also recorded: induced pks activation”.
Consider `O=C(O)/C=C/c1ccc(O)c(O)c1` [caffeic acid], for which the “tomato plant survival after pseudomonas syringae pv. Tomato infection” value in experiment [2] is reported as “increased tomato plant survival”. In experiment [3] (150 μM, 5 h, single cell fluorescence), the “number of cells expressing the pks operon” value is given as “induced the number of cells expressing the pks operon”. Besides, the “average pks expression level” value in experiment [3] (150 μM, single cell fluorescence, versus control) is “comparable to the control”. Besides, the “pks (PKS) expression” value in experiment [3] (B. subtilis amyE::Ppks-gfp, liquid MSgg, 5, 50, 100 and 150 μM) is on record as “activatespks operon; also recorded: significantly enhanced PKS expression”. Also, the “protective biofilms in planta on tomato roots (% coverage)” value is listed as “sustained protective biofilms in planta on tomato roots” in experiment [4] and “can promote biofilm maintenance” in experiment [4] (listed as Caffeic acid). Further, the “duration of increased stability of bacterial beneficial biofilms” value in experiment [5] (caffeic acid alone, 100 μM, laboratory conditions) was “up to 4 days”. For the same compound, in experiment [5], the “effect on beneficial biofilms (stability / maintenance), single agent” value is “can promote biofilm maintenance”. For the same compound, in experiment [6], the “planktonic growth of B. subtilis” value is given as “no impact on planktonic growth; also recorded: little or no effect on the growth of B. subtilis”.
As to `O=C(/C=C/c1ccc(O)c(O)c1)O[C@@H]1C[C@](O)(C(=O)O)C[C@@H](O)[C@H]1O` [chlorogenic acid], the “pks activation in screen of plant metabolites” value in experiment [1] is reported as “activatespks operon; also recorded: induced pks activation”.
For `NCCCCN` [putrescine], the “tomato plant survival after pseudomonas syringae pv. Tomato infection” value in experiment [2] is given as “little or no biological effect on tomato plant survival”. The “effect on beneficial biofilms (stability / maintenance), single agent” value in experiment [5] was “little or no biological effect”.
